Source: patent publication US11535609B2, “Pyrazine-2(1H)-ketone compound preparation method” (ZHANGZHOU PIEN TZE HUANG PHARMACEUTICAL CO., LTD., priority 2019, dated 2022)

Experiments:
[1] = Pharmacokinetics in mice, single gavage; type: in vivo, CD-1 mouse (male)
Method: Experimental purpose: To test the pharmacokinetics of the compound in mice
CD-1 mouse (male), vehicle (0.5% (w/v) methylcellulose 0.5% (v/v) Tween 80 aqueous solution), trifluoroacetate of compound 0027.
The vehicle was an aqueous solution of 0.5% (w/v) methylcellulose and 0.5% (v/v) Tween 80, and it was prepared according to the following procedure:
Formulation of Preparations for Intragastric Administration: […]
a. An appropriate amount of the test product was weighed and put into a glass bottle;
b. 70% volume of vehicle (0.5% (w/v) methyl cellulose 0.5% (v/v) Tween 80 aqueous solution) was added;
c. The preparation was stirred until it was visually homogeneous, and subjected to ultrasound in water bath as needed;
e. Make up the remaining volume of 0.5% methylcellulose+0.5% Tween 80, and the mixture was stirred until being visually homogeneous.
Animals in groups 1 and 2 were administrated 5 mg/mL and 30 mg/mL compounds by single gavage, with a dose volume of 10 mL/kg.
The body weight of the animals was weighed before administration, and the administration volume was calculated based on the body weight.
Whole blood samples (30 μL) were collected at the prescribed time (0.25, 0.5, 1, 2, 4, 6, 8, 24 h) through saphenous vein blood collection, and the actual blood collection time was recorded in the test record. The acceptable error of the collection time point was a time point within 1 hour of the administration ±1 minute, and the acceptable error of other time points is a theoretical time ±5%.
All blood samples were immediately transferred to labeled commercial centrifuge tubes containing K2-EDTA. After being collected, the blood samples were centrifuged at 3200 rpm for 10 minutes at 4° C. to aspirate the supernatant plasma, which was quickly placed in dry ice, kept at −20° C. or a lower temperature for LC-MS/MS analysis. The pharmacokinetic parameters were calculated.

wild-type FGFR = test: Inhibitory activity of wild-type kinase in vitro (overall conclusion); type: biochemical, human; details: conclusion in words
Method: The IC50 value was determined using ^33P isotope-labeled kinase activity test (Reaction Biology Corp) to evaluate the inhibitory ability of the compounds to be tested on human FGFR4 and VEGFR2.
Buffer conditions: 20 mM 4-(2-hydroxyethyl)-1-piperazineethanesulfonic acid (Hepes) (pH 7.5), 10 mM MgCl2, 1 mM ethylene glycol-bis-(2-aminoethyl ether)tetra acetic acid (EGTA), 0.02% polyoxyethylene lauryl ether (Brij35), 0.02 mg/ml bovine serum albumin (BSA), 0.1 mM sodium vanadate (Na3VO4), 2 mM dithiothreitol (DTT), 1% DMSO.
Experimental steps: At room temperature, the compounds to be tested were dissolved in DMSO to prepare a 10 mM solution for use. The substrate was dissolved in the freshly prepared buffer, and the kinase to be tested was added thereto and mixed well. The DMSO solution in which the compounds to be tested were dissolved was added to the above-mentioned homogeneous reaction solution using acoustic technology (Echo 550). The compound concentration in the reaction solution is 10 μM, 3.33 μM, 1.11 μM, 0.370 μM, 0.123 μM, 41.2 nM, 13.7 nM, 4.57 nM, 1.52 nM, 0.508 nM, or 10 μM, 2.50 μM, 0.62 μM, 0.156 μM, 39.1 nM, 9.8 nM, 2.4 nM, 0.61 nM, 0.15 nM, 0.038 nM. […] After the filter paper was repeatedly washed with 0.75% phosphoric acid solution, the radioactivity of the phosphorylated substrate remaining on the filter paper was measured. […]

- AUC0-inf ([1]; CD-1 mouse, gavage, 50 mpk): 95.847 µM·h
- AUC0-last ([1]; CD-1 mouse, gavage, 50 mpk): 85.826 µM·h
- MRT0-inf ([1]; CD-1 mouse, gavage, 50 mpk): 5.39 h
- MRT0-last ([1]; CD-1 mouse, gavage, 50 mpk): 4.33 h
- T1/2 ([1]; CD-1 mouse, gavage, 50 mpk): 2.46 h
- Tmax ([1]; CD-1 mouse, gavage, 50 mpk): 1.00 h
- AUC0-last ([1]; CD-1 mouse, gavage, 300 mpk): 699.413 µM·h
- MRT0-last ([1]; CD-1 mouse, gavage, 300 mpk): 11.1 h
- Tmax ([1]; CD-1 mouse, gavage, 300 mpk): 7.00 h
- pharmacokinetic indexes in mice ([1]; conclusion in words): good pharmacokinetic indexes
- inhibitory activity against wild-type FGFR (wild-type FGFR): good inhibitory activity
- selectivity towards FGFR2 and FGFR3 compared to FGFR1 and FGFR4 (wild-type FGFR): relative high selectivity
SMILES: COc1cc(OC)c(Cl)c(-c2nc(-c3nc(-c4cn(C)nc4C)cnc3N)cn(C)c2=O)c1
